Results as given in paper PMC5447021, “TNF Lectin-Like Domain Restores Epithelial Sodium Channel Function in Frameshift Mutants Associated with Pseudohypoaldosteronism Type 1B” (Frontiers in Immunology, 2017).
Entries after “also recorded” stand apart in the source; their conditions may differ.

Legend:
αR438fs = assay: Membrane abundance of αR438fs; type: cell-based, human; conditions: 200 nM, relative to WT control (=1)
Experimental: (§1) Cell surface biotinylation was performed as previously described ([26]). In brief, A549 cells or transiently transfected HEK-293 cells were grown in 10 cm dishes in 37°C, 5% CO2 incubator in DMEM medium supplemented with 5% FBS. […] Medium was aspirated, and then cells were washed twice with 10 ml ice-cold phosphate-buffered saline (PBS), covered with 2.5 mg EZ-Link Sulfo-NHS-SS-Biotin (Thermo Scientific, Rockford, USA), dissolved in 10 ml ice-cold PBS, and incubated at 4°C with gentle agitation for 30 min. Fifty milliliters of quenching solution were added to cells; then cells were scraped in solution and transferred to fresh 50 ml tube. Cell suspension was centrifuged at 500 × g for 3 min. Supernatant was discarded, and 5 ml of Tris-buffered saline (TBS) was added to the cell pellet. The cell pellet was resuspended and centrifuged at 500 × g for 3 min. Supernatant was discarded and cell pellet was resuspended in lysis buffer containing protease inhibitor cocktail (10 µM pepstatin A, 10 µM phenylmethylsulfonyl fluoride, and 10 µM leupeptin) and transferred to fresh 1.5 ml centrifuge tube. Cell pellet was then homogenized on ice by ultrasonication using 1 s bursts and incubated on ice for at least 30 min. Intact cells and nuclei were pelleted by centrifugation at 10,000 × g for 2 min under cooling conditions. […] Exposed films were scanned and quantified using ImageJ (NIH, MD, USA). […]

α-ENaC (WT αβγ-ENaC) = assay: Membrane abundance of WT α-ENaC (cell surface biotinylation, Western blot); type: cell-based, human; conditions: HEK-293, 200 nM solnatide, relative to WT control (=1), p < 0.001 vs control
Experimental: Cell surface biotinylation was performed as previously described ([26]). In brief, A549 cells or transiently transfected HEK-293 cells were grown in 10 cm dishes in 37°C, 5% CO2 incubator in DMEM medium supplemented with 5% FBS. […] Medium was aspirated, and then cells were washed twice with 10 ml ice-cold phosphate-buffered saline (PBS), covered with 2.5 mg EZ-Link Sulfo-NHS-SS-Biotin (Thermo Scientific, Rockford, USA), dissolved in 10 ml ice-cold PBS, and incubated at 4°C with gentle agitation for 30 min. Fifty milliliters of quenching solution were added to cells; then cells were scraped in solution and transferred to fresh 50 ml tube. Cell suspension was centrifuged at 500 × g for 3 min. Supernatant was discarded, and 5 ml of Tris-buffered saline (TBS) was added to the cell pellet. The cell pellet was resuspended and centrifuged at 500 × g for 3 min. Supernatant was discarded and cell pellet was resuspended in lysis buffer containing protease inhibitor cocktail (10 µM pepstatin A, 10 µM phenylmethylsulfonyl fluoride, and 10 µM leupeptin) and transferred to fresh 1.5 ml centrifuge tube. Cell pellet was then homogenized on ice by ultrasonication using 1 s bursts and incubated on ice for at least 30 min. Intact cells and nuclei were pelleted by centrifugation at 10,000 × g for 2 min under cooling conditions. […] Exposed films were scanned and quantified using ImageJ (NIH, MD, USA).

αY447fs = assay: Membrane abundance of αY447fs; type: cell-based, human; conditions: 200 nM, relative to WT control (=1), own control 1.27 ± 0.10, p < 0.001 vs control
Experimental: as §1

βγ-ENaC = assay: Whole-cell patch clamp, WT βγ-ENaC; type: cell-based, human; conditions: HEK-293, 200 nM solnatide, n = 3
Experimental: HEK-293 cells were transfected 1 day after cell seeding using X-tremeGENE HP DNA transfection reagent (Roche Diagnostics, Mannheim, Germany) according to the manufacturer’s protocol. A set of WT or mutant αβγ- or δβγ-hENaC, or α-, β-, γ-, or δ-hENaC alone was used, and the ratio of DNA to transfection reagent was 1:3. The expression was highest 48–72 h after transfection.
Electrophysiological experiments were performed as described in detail by Shabbir et al. ([16]). […] Currents were recorded with the patch clamp method in the whole-cell mode. The chamber contained 1 ml of the bath solution of the following composition (in mM): 145 NaCl, 2.7 KCl, 1.8 CaCl2, 2 MgCl2, 5.5 glucose, and 10 HEPES, adjusted to pH 7.4 with 1 M NaOH solution. Micropipettes were pulled from thin-walled borosilicate glass capillaries (Harvard Apparatus, Holliston, MA, USA) with a DMZ Zeitz Puller to obtain electrode resistances ranging from 2 to 5 MΩ. The pipette solution contained (in millimolars): 135 potassium methane sulfonate, 10 KCl, 6 NaCl, 1 Mg2ATP, 2 Na3ATP, 10 HEPES, and 0.5 EGTA, adjusted to pH 7.2 with 1 M KOH solution. Chemicals for pipette and bathing solutions were supplied by Sigma-Aldrich (Vienna, Austria). Electrophysiological measurements were carried out with an Axopatch 200B patch clamp amplifier (Axon Instruments, CA, USA). […]

γ-ENaC = conditions: HEK-293, 5 and 10 min; cited from earlier work

## C[C@@H]1NC(=O)CNC(=O)[C@H](CCC(=O)O)NC(=O)[C@@H]2CCCN2C(=O)[C@H]([C@@H](C)O)NC(=O)[C@H](CCC(=O)O)NC(=O)[C@H](CCCNC(=N)N)NC(=O)[C@H](CCC(N)=O)NC(=O)CNC(=O)[C@@H](N)CSSC[C@@H](C(=O)O)NC(=O)[C@H](Cc2ccc(O)cc2)NC(=O)[C@H](Cc2c[nH]c3ccccc23)NC(=O)[C@@H]2CCCN2C(=O)[C@H](CCCCN)NC(=O)[C@H](C)NC(=O)[C@H](CCC(=O)O)NC1=O [solnatide, L-cysteine, L-cysteinylglycyl-L-glutaminyl-L-arginyl-L-α-glutamyl-L-threonyl-L-prolyl-L-α-glutamylglycyl-L-alanyl-L-α-glutamyl-L-alanyl-L-lysyl-L-prolyl-L-tryptophyl-L-tyrosyl-, cyclic (1→17)-disulfide]
αR438fs; 5 min, own control 0.90 ± 0.07, p < 0.001 vs control
  Membrane abundance, solnatide 5 min: 1.39 ± 0.14
αR438fs; 10 min, own control 0.90 ± 0.07
  Membrane abundance, solnatide 10 min: 0.87 ± 0.10
α-ENaC (WT αβγ-ENaC); 5 min, normalized to β-actin
  Membrane abundance, solnatide 5 min: 1.48 ± 0.12
α-ENaC (WT αβγ-ENaC); 10 min
  Membrane abundance, solnatide 10 min: 1.40 ± 0.09
αY447fs; 5 min
  Membrane abundance, solnatide 5 min: 1.57 ± 0.13
αY447fs; 10 min
  Membrane abundance, solnatide 10 min: 1.89 ± 0.16
βγ-ENaC
  Effect of solnatide on current (words): small current increase in WT βγ-ENaC; also recorded: can activate βγ-ENaC marginally
γ-ENaC
  Membrane abundance, solnatide: only slight
